Values quoted from earlier work as cited in patent publication US6348490B1, “Dosage forms containing thioctic acid or solid salts of thioctic acid with improved release and bioavailability” (Asta Medica Aktiengesellschaft, priority 1994, dated 2002).

Assays:
[1] = factor versus racemate
[2] = factor versus racemate; remark: listed apart in the source

| Structure (SMILES) | anti-nociceptive (analgesic) action, factor stronger than that of the racemate [1] | anti-inflammatory action, factor stronger than that of the racemate [2] |
| --- | --- | --- |
| O=C(O)CCCC[C@H]1CCSS1 (single isomer, unassigned) [S-enantiomer, S-thioctic acid] | 6 | – |
| O=C(O)CCCC[C@@H]1CCSS1 [R-Thioctic acid, R-thioctic acid] | – | 10 |
